# Literature values in patent publication US20130289102A1, “AMYRIS ALCOHOL AND ITS ESTER FOR TREATING ACNE” (Trinity Laboratories, Inc., priority 2010, published 2013).
# Key:
# angiogenesis = settings: mice
# [1] = system: porcine brain microvascular endothelial cells; settings: 50-100 microM
# [2] = biological target: T1, nicotinic ACh receptor channel (Mus musculus, UniProt P02716+P04756+P09690+P20782)
# T1 construct: the nicotinic acetylcholine receptor channel in mouse skeletal muscles; host or cells: mouse skeletal muscle
# [3] = system: extracellular signal-regulated kinase (ERK) 1/2; settings: 100 microM
# [4] = system: human umbilical vein endothelial cells (HUVEC)
# Na^+, K(+)-ATPase = settings: compared with other phosphatases examined
# human estrogen receptor = biological target: T2, human estrogen receptor (Homo sapiens, UniProt P03372)
# T2 sequence (P03372 1-595): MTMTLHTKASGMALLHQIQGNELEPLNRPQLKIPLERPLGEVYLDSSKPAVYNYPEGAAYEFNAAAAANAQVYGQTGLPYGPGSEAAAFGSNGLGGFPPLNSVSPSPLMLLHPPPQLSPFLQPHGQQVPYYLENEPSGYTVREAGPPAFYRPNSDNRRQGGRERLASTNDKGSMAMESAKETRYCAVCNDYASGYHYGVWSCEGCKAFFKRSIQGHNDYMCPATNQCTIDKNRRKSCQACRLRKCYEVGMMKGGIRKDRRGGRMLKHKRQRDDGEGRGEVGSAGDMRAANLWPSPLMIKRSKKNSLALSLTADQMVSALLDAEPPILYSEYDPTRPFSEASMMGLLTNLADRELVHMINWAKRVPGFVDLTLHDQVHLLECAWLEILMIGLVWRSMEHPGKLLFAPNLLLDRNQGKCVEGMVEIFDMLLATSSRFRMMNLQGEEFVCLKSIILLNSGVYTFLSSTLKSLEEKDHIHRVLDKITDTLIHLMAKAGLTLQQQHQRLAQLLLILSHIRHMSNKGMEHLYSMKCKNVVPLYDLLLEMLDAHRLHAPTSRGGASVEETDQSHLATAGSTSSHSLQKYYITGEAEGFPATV
# [5] = system: superoxide anion production; settings: 0.33 μg/ml to 33.3 μg/ml
# cyclooxygenase = settings: 6.25 μg/ml, with respect to the control
# [6] = system: UVB-induced pigmented skins
# creatine kinase activity = settings: rat uterus, epiphyseal cartilage, diaphyseal bone, aorta, left ventricle of the heart
# [7] = up to 292 mg/kg over 1 to 3 months
# estrogenic activity = settings: among the known phytoestrogens
# [8] = mouse, in vivo, po
# [9] = system: post-ischemic brain injury; settings: focal ischemia in rats
# [10] = biological target: presynaptic omega-agatoxin IVA-sensitive (P/Q-type) Ca^2+ channel (Rattus norvegicus, UniProt P54282)
# neurogenic inflammation = settings: following electrical stimulation of rat trigeminal ganglion
# T1 sequence (P04756 21-457): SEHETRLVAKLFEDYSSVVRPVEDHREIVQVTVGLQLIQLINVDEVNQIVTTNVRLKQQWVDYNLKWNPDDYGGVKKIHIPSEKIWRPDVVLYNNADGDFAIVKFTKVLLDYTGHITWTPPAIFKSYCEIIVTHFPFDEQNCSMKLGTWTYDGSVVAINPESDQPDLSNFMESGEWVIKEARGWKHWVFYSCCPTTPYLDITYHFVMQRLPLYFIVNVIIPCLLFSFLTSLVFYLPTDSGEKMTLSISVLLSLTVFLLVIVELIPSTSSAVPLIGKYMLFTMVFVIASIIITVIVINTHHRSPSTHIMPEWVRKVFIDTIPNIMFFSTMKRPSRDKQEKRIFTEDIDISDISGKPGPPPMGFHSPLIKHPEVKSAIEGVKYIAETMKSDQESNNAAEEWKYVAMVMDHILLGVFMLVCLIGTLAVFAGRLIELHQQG
# T1 sequence (P09690 24-501): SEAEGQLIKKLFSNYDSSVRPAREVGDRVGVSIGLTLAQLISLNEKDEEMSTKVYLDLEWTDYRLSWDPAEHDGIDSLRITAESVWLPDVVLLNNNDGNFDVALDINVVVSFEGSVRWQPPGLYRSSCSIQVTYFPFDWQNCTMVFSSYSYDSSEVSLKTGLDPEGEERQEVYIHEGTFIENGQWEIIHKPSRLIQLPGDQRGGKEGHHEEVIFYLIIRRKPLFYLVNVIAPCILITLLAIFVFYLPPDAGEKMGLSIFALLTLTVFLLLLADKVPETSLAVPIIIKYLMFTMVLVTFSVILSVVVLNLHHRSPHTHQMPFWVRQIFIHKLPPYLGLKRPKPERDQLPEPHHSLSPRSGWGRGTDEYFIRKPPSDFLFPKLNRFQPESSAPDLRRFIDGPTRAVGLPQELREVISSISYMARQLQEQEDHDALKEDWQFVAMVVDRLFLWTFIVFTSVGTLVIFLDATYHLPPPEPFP
# T1 sequence (P02716 25-520): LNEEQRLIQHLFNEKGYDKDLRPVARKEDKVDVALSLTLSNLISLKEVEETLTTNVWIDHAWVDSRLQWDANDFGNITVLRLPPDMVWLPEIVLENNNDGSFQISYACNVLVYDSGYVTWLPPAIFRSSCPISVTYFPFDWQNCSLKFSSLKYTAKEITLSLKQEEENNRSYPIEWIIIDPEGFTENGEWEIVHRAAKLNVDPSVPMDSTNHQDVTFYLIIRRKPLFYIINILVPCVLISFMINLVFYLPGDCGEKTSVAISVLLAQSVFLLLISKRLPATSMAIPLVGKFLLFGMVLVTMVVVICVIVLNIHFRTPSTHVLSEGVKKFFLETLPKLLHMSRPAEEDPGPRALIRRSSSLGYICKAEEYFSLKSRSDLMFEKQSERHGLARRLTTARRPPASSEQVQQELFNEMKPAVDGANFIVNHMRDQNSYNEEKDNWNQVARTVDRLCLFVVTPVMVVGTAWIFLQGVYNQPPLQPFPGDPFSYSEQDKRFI
# T1 sequence (P20782 21-493): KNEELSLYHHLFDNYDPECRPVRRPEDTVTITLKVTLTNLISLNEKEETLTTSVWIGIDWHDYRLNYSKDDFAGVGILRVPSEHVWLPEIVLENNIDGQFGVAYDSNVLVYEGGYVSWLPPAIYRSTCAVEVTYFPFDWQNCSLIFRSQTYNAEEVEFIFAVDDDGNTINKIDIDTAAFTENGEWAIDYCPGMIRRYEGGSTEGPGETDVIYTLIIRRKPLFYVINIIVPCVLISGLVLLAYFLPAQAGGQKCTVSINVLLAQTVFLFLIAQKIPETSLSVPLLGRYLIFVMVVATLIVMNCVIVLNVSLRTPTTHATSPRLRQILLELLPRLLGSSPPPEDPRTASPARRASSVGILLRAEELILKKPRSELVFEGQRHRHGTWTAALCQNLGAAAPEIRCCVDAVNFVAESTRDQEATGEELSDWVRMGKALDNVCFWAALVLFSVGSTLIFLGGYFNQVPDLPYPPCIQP
# Chain of presynaptic omega-agatoxin IVA-sensitive (P/Q-type) Ca^2+ channel (P54282 whole entry): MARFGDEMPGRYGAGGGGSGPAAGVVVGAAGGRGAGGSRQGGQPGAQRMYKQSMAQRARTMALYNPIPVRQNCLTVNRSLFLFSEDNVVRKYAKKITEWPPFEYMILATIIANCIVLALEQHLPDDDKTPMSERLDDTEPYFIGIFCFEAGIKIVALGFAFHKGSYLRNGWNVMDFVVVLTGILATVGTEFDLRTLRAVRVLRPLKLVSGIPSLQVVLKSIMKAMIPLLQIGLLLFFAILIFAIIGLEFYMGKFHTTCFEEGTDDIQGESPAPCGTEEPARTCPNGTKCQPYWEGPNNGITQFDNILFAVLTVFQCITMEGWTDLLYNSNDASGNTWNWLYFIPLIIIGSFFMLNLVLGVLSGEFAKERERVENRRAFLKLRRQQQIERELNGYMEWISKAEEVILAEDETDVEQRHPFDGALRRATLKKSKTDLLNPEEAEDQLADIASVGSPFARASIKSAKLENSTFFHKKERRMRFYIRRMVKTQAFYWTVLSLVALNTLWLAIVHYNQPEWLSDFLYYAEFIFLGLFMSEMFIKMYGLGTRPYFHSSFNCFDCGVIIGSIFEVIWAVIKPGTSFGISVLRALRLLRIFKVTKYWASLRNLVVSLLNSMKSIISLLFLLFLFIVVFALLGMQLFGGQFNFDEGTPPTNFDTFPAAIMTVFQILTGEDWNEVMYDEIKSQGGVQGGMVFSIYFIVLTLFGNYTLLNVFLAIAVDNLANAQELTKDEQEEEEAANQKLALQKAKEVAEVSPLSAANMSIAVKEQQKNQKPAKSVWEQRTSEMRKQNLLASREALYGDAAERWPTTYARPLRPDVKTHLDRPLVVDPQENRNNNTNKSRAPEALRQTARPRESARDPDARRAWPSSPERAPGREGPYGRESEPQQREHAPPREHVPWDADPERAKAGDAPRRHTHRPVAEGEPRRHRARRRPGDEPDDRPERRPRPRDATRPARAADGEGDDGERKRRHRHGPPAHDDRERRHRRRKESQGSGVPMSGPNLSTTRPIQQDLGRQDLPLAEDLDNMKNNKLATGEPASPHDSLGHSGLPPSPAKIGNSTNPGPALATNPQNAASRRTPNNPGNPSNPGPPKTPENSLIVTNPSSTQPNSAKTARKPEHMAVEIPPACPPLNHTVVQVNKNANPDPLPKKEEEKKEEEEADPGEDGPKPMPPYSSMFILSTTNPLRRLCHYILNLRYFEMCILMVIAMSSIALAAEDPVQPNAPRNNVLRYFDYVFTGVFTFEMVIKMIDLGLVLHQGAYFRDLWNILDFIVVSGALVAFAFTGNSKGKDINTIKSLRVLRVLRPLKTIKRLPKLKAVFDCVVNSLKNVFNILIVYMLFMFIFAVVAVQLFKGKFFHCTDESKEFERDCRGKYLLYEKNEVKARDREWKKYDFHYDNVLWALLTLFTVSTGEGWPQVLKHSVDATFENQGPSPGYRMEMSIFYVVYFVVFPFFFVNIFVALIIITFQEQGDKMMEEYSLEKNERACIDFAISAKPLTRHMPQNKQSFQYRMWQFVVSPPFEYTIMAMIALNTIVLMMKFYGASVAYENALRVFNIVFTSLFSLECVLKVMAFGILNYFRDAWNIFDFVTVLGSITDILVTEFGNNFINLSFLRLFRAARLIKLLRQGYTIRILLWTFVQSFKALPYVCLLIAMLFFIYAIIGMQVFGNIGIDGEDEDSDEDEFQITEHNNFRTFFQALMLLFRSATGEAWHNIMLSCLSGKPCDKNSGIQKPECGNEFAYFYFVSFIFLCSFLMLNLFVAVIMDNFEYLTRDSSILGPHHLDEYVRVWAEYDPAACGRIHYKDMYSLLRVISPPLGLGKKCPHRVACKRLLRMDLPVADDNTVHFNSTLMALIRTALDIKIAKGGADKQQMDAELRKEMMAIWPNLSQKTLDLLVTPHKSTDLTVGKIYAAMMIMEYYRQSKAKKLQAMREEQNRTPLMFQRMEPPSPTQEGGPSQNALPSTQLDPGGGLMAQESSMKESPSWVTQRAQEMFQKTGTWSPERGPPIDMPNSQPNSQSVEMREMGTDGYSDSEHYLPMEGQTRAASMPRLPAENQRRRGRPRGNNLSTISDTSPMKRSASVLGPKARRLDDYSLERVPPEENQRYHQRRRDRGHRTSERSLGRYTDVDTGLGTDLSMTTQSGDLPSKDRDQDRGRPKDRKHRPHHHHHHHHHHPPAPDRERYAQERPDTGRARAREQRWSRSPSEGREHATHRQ
smiles,measurement,setting,value
C=C1CCC[C@]2(C)CC[C@@H](C(C)(C)O)C[C@@H]12 [β-eudesmol],angiogenesis in adjuvant-induced granuloma,angiogenesis,significantly inhibited angiogenesis
same,angiogenesis in subcutaneously implanted Matrigel plugs,angiogenesis,significantly inhibited angiogenesis
same,proliferation of porcine brain microvascular endothelial cells,[1],inhibited
same,desensitization of the nicotinic ACh receptor,[2],accelerated the desensitization
same,nicotinic ACh receptor channel block,[2]; mouse skeletal muscles,blocked the nicotinic ACh receptor channel in both the open and closed conformations
same,neurite extension,PC-12 cells; 100 and 150 μM,significantly induced neurite extension
same,[3H]thymidine incorporation,PC-12 cells; at the highest concentration (150 μM),suppression of [^3H]thymidine incorporation
same,phosphorylation of ERK 1/2 induced by bFGF or vascular endothelial growth factor,[3],blocked the phosphorylation
same,HUVEC migration stimulated by bFGF,[4],inhibited the HUVEC migration
same,tube formation by HUVEC in Matrigel,[4],inhibited
same,proliferation of HUVEC,[4]; 50-100 microM,inhibited
same,"inhibition of Na+,K+-ATPase activity","Na^+, K(+)-ATPase",most strongly among the various kinds of phosphatases examined
"CC1(C)C=Cc2c(ccc3c2OC[C@@H](c2ccc(O)cc2O)C3)O1 [glabridin, Glabridin]",binding to estrogen receptor,human estrogen receptor,binding to the human estrogen receptor
same,superoxide (active oxygen) formation,[5],inhibited superoxide (active oxygen) formation
same,cyclooxygenase activity,cyclooxygenase,inhibited the cyclooxygenase activity
same,pigmentation induced by UVB radiation,"[6]; 0.5% solution, topical, backs of brownish guinea pigs",significantly reduced pigmentation
same,inflammation induced by UVB irradiation,"[6]; 0.5% solution, topical, guinea pig skin",decreased the inflammation
same,DOPA-positive melanocytes,"[6]; treated skin, epidermal histology",reduced in number
same,"effect on growth of breast tumor cells, low concentrations","breast tumor cells; 10 nM-10 μM, estrogen receptor-dependent",growth-promoting effect
same,"effect on growth of breast tumor cells, high concentrations","breast tumor cells; >15 μM, estrogen receptor-independent",antiproliferative activity
same,creatine kinase activity,creatine kinase activity,stimulating creatine kinase activity
CO[C@H]1O[C@@H]2O[C@@]3(C)CC[C@H]4[C@H](C)CC[C@@H]([C@H]1C)[C@@]24OO3 [artemether],toxicity in monkeys,[7],no toxicity
CC1(C)[C@H]2C(=COc3cc(O)ccc32)[C@]2(O)C(=O)C[C@]3(O)C[C@H]1[C@H]2[C@H]3O [Miroestrol],estrogenic activity,estrogenic activity,highest estrogenic activity among the known phytoestrogens
C[C@@H]1CC[C@H]2[C@@H](C)C(=O)O[C@@H]3O[C@@]4(C)CC[C@@H]1[C@]32OO4 [Artemisinin],LD50,[8],4228 mg/kg
CC1=CCC[C@]2(C)CC[C@@H](C(C)(C)O)C[C@@H]12 [α-eudesmol],post-ischemic brain injury,[9],attenuates post-ischemic brain injury
same,inhibition of P/Q-type Ca2+ channel,[10],potently inhibits
same,inhibition of neurogenic inflammation,neurogenic inflammation,potently inhibits
CC1(C)[C@H]2C(=COc3cc(O)ccc32)[C@@H]2C(=O)C[C@]3(O)C[C@H]1[C@H]2[C@H]3O [Deoxymiroestrol],estrogenic activity,estrogenic activity,highest estrogenic activity among the known phytoestrogens
